Measured values from ChEMBL document CHEMBL6083267, “Rational fragment-based design of compounds targeting the PWWP domain of the HRP family” (Eur J Med Chem, 2024).

Target: PC4 and SFRS1-interacting protein (Homo sapiens, UniProt O75475)
Sequence (O75475 whole entry): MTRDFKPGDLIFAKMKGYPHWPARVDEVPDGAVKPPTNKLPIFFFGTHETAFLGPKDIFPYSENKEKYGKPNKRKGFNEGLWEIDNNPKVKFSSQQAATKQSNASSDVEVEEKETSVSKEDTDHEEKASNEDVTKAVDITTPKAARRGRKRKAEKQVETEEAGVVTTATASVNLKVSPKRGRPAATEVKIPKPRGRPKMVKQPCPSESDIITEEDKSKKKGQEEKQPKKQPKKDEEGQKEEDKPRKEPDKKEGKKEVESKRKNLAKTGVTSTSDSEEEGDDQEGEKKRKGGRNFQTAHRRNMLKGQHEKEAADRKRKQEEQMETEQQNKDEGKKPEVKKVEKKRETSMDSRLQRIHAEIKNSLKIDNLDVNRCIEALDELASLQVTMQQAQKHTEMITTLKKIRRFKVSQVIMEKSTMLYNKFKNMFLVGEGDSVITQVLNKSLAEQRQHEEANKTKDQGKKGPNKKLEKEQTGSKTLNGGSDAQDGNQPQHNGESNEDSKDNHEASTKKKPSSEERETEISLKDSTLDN
Description: Binding affinity to N-terminal His10-tagged LEDGF/P75 PWWP domain (1 to 110 residues) (unknown origin) expressed in Escherichia coli assessed as dissociation constant incubated for overnight by NMR analysis

Compound	Kd [µM]
NCc1cncc(Br)c1	216
CCS(=O)(=O)c1ccc(C2CCCCN2)cc1 (stereo unspecified)	526
CCS(=O)(=O)c1ccccc1NC(=O)COc1cccc(CC(=O)O)c1	590
NC(=O)CCN1CCCC1c1ccccc1 (stereo unspecified)	363
CCS(=O)(=O)c1ccccc1NC(=O)CCl	700
Nc1ccc(CNCc2cncc(Br)c2)cc1	147
